Laboratory results as given in PubChem BioAssay AID623948 (Vanderbilt Specialized Chemistry Center, 2012).
Activity calls are given as the source filed them.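 How the source made its calls: active means compound shifting the acetylcholine potency curve by more than threefold; inactive means the rest.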

Molecular target: Muscarinic acetylcholine receptor M4 (Homo sapiens) (UniProt P08173)
Test: ACh curve leftward shift by hM4 PAMs, SAR follow-up, mechanism study, CHO cells, Gqi5 chimera, calcium mobilization (AID 623948)
Details: for % ACh max / outcome: ACh fold shift; for % ACh max: measured here: ACh max response with compound; for % ACh max / fold shift: at 30 µM, stronger effect = higher value

Chain of Muscarinic acetylcholine receptor M4 (Homo sapiens) (P08173 whole entry, looked up): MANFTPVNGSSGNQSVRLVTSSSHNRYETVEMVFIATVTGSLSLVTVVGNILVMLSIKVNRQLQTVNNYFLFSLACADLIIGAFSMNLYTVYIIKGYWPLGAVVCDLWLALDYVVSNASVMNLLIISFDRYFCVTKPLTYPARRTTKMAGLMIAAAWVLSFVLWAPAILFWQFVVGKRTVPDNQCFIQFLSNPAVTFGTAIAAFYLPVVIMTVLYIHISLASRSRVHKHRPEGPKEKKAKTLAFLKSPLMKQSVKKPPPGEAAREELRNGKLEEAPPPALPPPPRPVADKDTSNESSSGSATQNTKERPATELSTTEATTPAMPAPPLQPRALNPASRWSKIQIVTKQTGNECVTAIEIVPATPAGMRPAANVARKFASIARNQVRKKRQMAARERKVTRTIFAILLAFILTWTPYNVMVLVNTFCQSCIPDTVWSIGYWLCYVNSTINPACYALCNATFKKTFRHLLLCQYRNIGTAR

COc1ccc(C)c2sc(NC(=O)c3cnccn3)nc12
% ACh max: 110% | fold shift: 3.65

Cc1nc2sc(C(=O)NC3CCOCC3)c(N)c2c(C)c1Cl
outcome: active; potentiator

COc1ccc(C)c2sc(NC(=O)C3=COCCO3)nc12
% ACh max: 106% | fold shift: 5.98

Cc1nc2sc(C(=O)NCc3cccnc3)c(N)c2c(C)c1Cl
outcome: active; potentiator

Cc1nc2sc(C(=O)NCc3ccccc3)c(N)c2c(C)c1Cl
outcome: active; potentiator

COc1ccc(C)c2sc(NC(=O)c3ccco3)nc12
% ACh max: 112% | fold shift: 3.63

COc1ccc(C)c2sc(NC(=O)c3cccnc3)nc12
% ACh max: 105% | fold shift: 2.93

COc1ccc(C)c2sc(NC(=O)c3ccncc3)nc12
% ACh max: 110% | fold shift: 14.9

Cc1nc2sc(C(=O)NCc3ccncn3)c(N)c2c(C)c1Cl
outcome: active; potentiator

Cc1nc2sc(C(=O)NCc3cccc(F)c3F)c(N)c2c(C)c1Cl
outcome: active; potentiator

Cc1nc2sc(C(=O)NCCc3ccncc3)c(N)c2c(C)c1Cl
outcome: active; potentiator

Cc1nc2sc(C(=O)NC3CC3)c(N)c2c(C)c1Cl
outcome: active; potentiator

Cc1nc2sc(C(=O)NCc3ccncc3)c(N)c2c(C)c1Cl
outcome: active; potentiator

Cc1nc2sc(C(=O)NCc3ccc4c(c3)OCO4)c(N)c2c(C)c1Cl
outcome: active; potentiator

Cc1nc2sc(C(=O)NCc3nccs3)c(N)c2c(C)c1Cl
outcome: active; potentiator
